Earlier results, collected in PMC8043539 (Journal of Enzyme Inhibition and Medicinal Chemistry, 2021).

Target: Sapp1p
Conditions: inhibition of Sapp1p from C. parapsilosis

Row | Compound | Ki
1 | CC(C)[C@H](NC(=O)OC(C)(C)C)C(=O)N[C@H](C(=O)N[C@@H](Cc1ccccc1)[C@@H](O)CC(=O)N[C@@H](C)C(=O)N[C@@H](Cc1ccccc1)[C@@H](O)CC(N)=O)C(C)C [KB70, tert-butyl-oxycarbonyl-valine-valine-phenylstatine-alanine-phenylstatine-NH2] | 100 pM
2 | COC(=O)[C@H](C)NC(=O)C[C@H](O)[C@H](Cc1ccccc1)NC(=O)[C@@H](NC(=O)[C@@H](NC(=O)OC(C)(C)C)C(C)C)C(C)C [KB74, tert-butyl-oxycarbonyl-valine-valine-phenylstatine-alanine-OMe] | 14600 pM
3 | isovaleric acid-valine-valine-statine-alanine-statine [Pepstatin A, reference compound] | 300 pM
